The values that follow come from ChEMBL document CHEMBL4813964, “2,5-Disubstituted furan derivatives containing 1,3,4-thiadiazole moiety as potent α-glucosidase and E. coli β-glucuronidase inhibitors” (Eur J Med Chem, 2021).

Assay [1] relates to Saccharomyces cerevisiae. The assay is described as follows: Inhibition of Saccharomyces cerevisiae alpha-glucosidase assessed as reduction in PNP formation at 10 uM using alpha-PNPG as substrate incubated for 30 mins relative to control.
The nature of assay [2]: Inhibition of Saccharomyces cerevisiae alpha-glucosidase assessed as reduction in PNP formation using alpha-PNPG as substrate incubated for 30 mins.
Assay [3] in a line: Inhibition of Escherichia coli […] expressed in Escherichia coli BL21 (DE3) assessed as reduction in PNP formation using beta-PNPG as substrate incubated for 30 mins.
Assay [4] relates to Escherichia coli. Nature of the assay: Inhibition of recombinant Escherichia coli […] expressed in Escherichia coli BL21(DE3) assessed as reduction in PNP formation at 10 uM using beta-PNPG as substrate incubated for 30 mins relative to control.
Assay [5] in a line: Uncompetitive inhibition of recombinant Escherichia coli […] expressed in Escherichia coli […] using beta-PNPG as substrate incubated for 30 mins by Lineweaver-Burk plot analysis.
In a further assay the test system is L02. The assay is described as follows: Cytotoxicity against human L02 cells assessed as reduction in cell viability incubated for 48 hrs by CCK8 assay. It is filed as cell-based. The note with it: L02, 48 h. In general terms: Tetrazolium assays rely on reduction of a dye to a coloured formazan, in cell work by metabolically active cells.
In assay [6] the test system is Escherichia coli. The assay is described as follows: Potency index, ratio of DSL IC50 to test compound IC50 for inhibition of Escherichia coli […] expressed in Escherichia coli BL21 (DE3) assessed as reduction in PNP formation using beta-PNPG as substrate incubated for 30 mins.
Assay [7] can be described thus: Mixed inhibition of recombinant Escherichia coli […] expressed in Escherichia coli BL21(DE3) using beta-PNPG as substrate incubated for 30 mins by Lineweaver-Burk plot analysis.
Assay [8] in a line: Competitive inhibition of Saccharomyces cerevisiae alpha-glucosidase using alpha-PNPG as substrate incubated for 30 mins by Lineweaver-Burk plot analysis.
Assay [9] has as its system Saccharomyces cerevisiae. The assay is described as follows: Potency index, ratio of ACAR IC50 to test compound IC50 for inhibition of Saccharomyces cerevisiae alpha-glucosidase assessed as reduction in PNP formation using alpha-PNPG as substrate incubated for 30 mins.

For `Cc1nnc(SC(=O)c2ccc(-c3ccc(Br)cc3)o2)s1`, the inhibition with Saccharomyces cerevisiae [1] is 50.8%; with Escherichia coli [4] it was 82.7%. The IC50 in assay [2] was found to be 11 µM; in assay [3], 0.755 µM.
As to `Cc1nnc(SC(=O)c2ccc(-c3cccc(F)c3)o2)s1`, the inhibition with Saccharomyces cerevisiae [1] came to 59.1%; in the assay on Escherichia coli [4] it was 91.7%. In addition, the Ki in assay [5] turned out to be 0.06 µM. The IC50 came out at 2.95 µM in [2], 86.2 µM in the assay with L02 and 0.082 µM in assay [3]. Besides, in the assay with Escherichia coli [6], the Ratio IC50 stood at 820.
As for `Cc1nnc(SC(=O)c2ccc(-c3ccccc3[N+](=O)[O-])o2)s1`, the inhibition in the assay with Saccharomyces cerevisiae [1] amounted to 81.6%; with Escherichia coli [4] it was 98.5%. Besides, the IC50 is 0.658 µM in assay [2] and 0.564 µM in [3].
On to `O=C(Sc1nncs1)c1ccc(-c2ccc(F)cc2)o1`, for which the inhibition with Saccharomyces cerevisiae [1] is 76.5%; in the assay with Escherichia coli [4], 94.4%. For the same compound, the half-maximal inhibitory concentration (IC50) in assay [2] is 0.652 µM; in [3], 0.526 µM.
`O=C(Sc1nncs1)c1ccc(-c2ccc([N+](=O)[O-])cc2)o1`: in the assay with Saccharomyces cerevisiae [1], the inhibition is 75.1%. Further, in assay [2], the concentration for half-maximal inhibition (IC50) came to 1.81 µM.
`O=C(Sc1nncs1)c1ccc(-c2ccccc2[N+](=O)[O-])o1`: the inhibition in the assay with Saccharomyces cerevisiae [1] was 95.7%; in the assay on Escherichia coli [4] it was 90.5%. In addition, the IC50 in assay [2] was 0.223 µM; in the assay with L02 it was above 100 µM; in [3] it was 0.341 µM.
Regarding `O=C(Sc1nncs1)c1ccc(-c2ccccc2Cl)o1`, the inhibition came out at 82.1% in the assay on Saccharomyces cerevisiae [1] and 88.1% in the assay on Escherichia coli [4]. The figures for the IC50 in assay [2] and in assay [3] were 1.35 µM and 5.37 µM, respectively.
Regarding `Cc1nnc(SC(=O)c2ccc(-c3ccccc3Cl)o2)s1`, the inhibition turned out to be 94.1% in the assay on Saccharomyces cerevisiae [1] and 100% with Escherichia coli [4]. The half-inhibitory concentration (IC50) turned out to be 0.774 µM in assay [2] and 0.23 µM in [3].
Take `O=C(Sc1nncs1)c1ccc(-c2ccccc2)o1`: the figures for the inhibition in the assay on Saccharomyces cerevisiae [1] and in the assay with Escherichia coli [4] were 79.5% and 105%, respectively. The IC50 in [2] is 0.613 µM; in assay [3], 1.13 µM.
On to `O=C(O)[C@@H](O)[C@H]1OC(=O)[C@H](O)[C@H]1O` [D-SACCHARIC ACID 1,4-LACTONE], for which the Ki in assay [7] is 30.9 µM. For the same compound, in [3], the 50% inhibitory concentration (IC50) worked out at 67.3 µM. Moreover, the inhibition in the assay on Escherichia coli [4] turned out to be 11.6%.
For the compound `Cc1nnc(SC(=O)c2ccc(-c3cccc(Cl)c3)o2)s1`, the results for the inhibition in the assay with Saccharomyces cerevisiae [1] and in the assay on Escherichia coli [4] were 82.5% and 99.6%, respectively. Besides, the values for the IC50 in assay [2] and in assay [3] were 0.728 µM and 0.551 µM, respectively.
For `Cc1nnc(SC(=O)c2ccc(-c3cccc([N+](=O)[O-])c3)o2)s1`, the inhibition in the assay on Saccharomyces cerevisiae [1] amounted to 20.1%; in the assay on Escherichia coli [4] it was 92.5%. Further, in [3], the IC50 turned out to be 1.21 µM.
As to `C[C@H]1O[C@H](O[C@H]2[C@H](O)[C@@H](O)[C@@H](O[C@H]3[C@H](O)[C@@H](O)C(O)O[C@@H]3CO)O[C@@H]2CO)[C@H](O)[C@@H](O)[C@@H]1N[C@H]1C=C(CO)[C@@H](O)[C@H](O)[C@H]1O` (stereo not given in full) [ACARBOSE], the inhibition in the assay with Saccharomyces cerevisiae [1] worked out at 11.1%. Also, the IC50 in assay [2] came to 517 µM. The compound also gave an inhibitory constant (Ki) in assay [8] of 378 µM.
For the compound `Cc1nnc(SC(=O)c2ccc(-c3c(F)cccc3F)o2)s1`, the values for the inhibition in the assay on Saccharomyces cerevisiae [1] and in the assay with Escherichia coli [4] were 90.8% and 96.1%, respectively. In addition, the half-maximal inhibitory concentration (IC50) in [2] was determined as 0.863 µM; in assay [3] it was 0.415 µM.
Turning to `O=C(Sc1nncs1)c1ccc(-c2ccc(Cl)cc2)o1`, the Ratio IC50 in the assay with Saccharomyces cerevisiae [9] worked out at 2800. Besides, the inhibition was determined as 68.9% in the assay with Saccharomyces cerevisiae [1] and 92% with Escherichia coli [4]. For the same compound, the results for the half-maximal inhibitory concentration (IC50) (in assay [2]; with L02; in assay [3]) were 0.186 µM, 83.3 µM and 2.08 µM, respectively. Moreover, in [8], the Ki came to 0.05 µM.
For `COc1ccc(-c2ccc(C(=O)Sc3nnc(C)s3)o2)cc1`, the inhibition in the assay on Saccharomyces cerevisiae [1] is 33.1%; with Escherichia coli [4] it was 87.5%. Also, the IC50 in [3] is 0.303 µM.
On to `Cc1ccc(-c2ccc(C(=O)Sc3nnc(C)s3)o2)cc1`, for which the inhibition was 44.4% in the assay on Saccharomyces cerevisiae [1] and 85.7% in the assay with Escherichia coli [4]. In addition, the IC50 in [3] amounted to 0.508 µM.
In the case of `Cc1nnc(SC(=O)c2ccc(-c3ccccc3F)o2)s1`, the values for the inhibition in the assay on Saccharomyces cerevisiae [1] and with Escherichia coli [4] were 69.9% and 96.6%, respectively. Besides, the figures for the IC50 in assay [2] and in assay [3] were 2.74 µM and 0.307 µM, respectively.
Take `O=C(Sc1nncs1)c1ccc(-c2ccc(F)cc2F)o1`: the inhibition in the assay with Saccharomyces cerevisiae [1] was determined as 71%; with Escherichia coli [4], 76.4%. In addition, the values for the IC50 in assay [2] and in [3] were 1.14 µM and 1.27 µM, respectively.
In the case of `Cc1ccc(-c2ccc(C(=O)Sc3nncs3)o2)cc1`, the figures for the inhibition in the assay with Saccharomyces cerevisiae [1] and in the assay with Escherichia coli [4] were 78.2% and 90.1%, respectively. For the same compound, the IC50 in [2] worked out at 0.286 µM; in [3] it was 0.312 µM.
As for `O=C(Sc1nncs1)c1ccc(-c2cccc(F)c2)o1`, the inhibition in the assay on Saccharomyces cerevisiae [1] came out at 82.6%; in the assay on Escherichia coli [4] it was 95.9%. Further, the IC50 in [2] stood at 0.646 µM; in assay [3], 0.425 µM.
On the same counts, the results for `COc1ccc(-c2ccc(C(=O)Sc3nncs3)o2)cc1` are 74.4%, 93%, 0.239 µM and 0.533 µM.
For the compound `O=C(Sc1nncs1)c1ccc(-c2ccc(Br)cc2)o1`, the inhibition worked out at 66.7% in the assay with Saccharomyces cerevisiae [1] and 76.4% with Escherichia coli [4]. Moreover, the IC50 in [2] was 0.526 µM; in [3] it was 0.379 µM.
For `Cc1nnc(SC(=O)c2ccc(-c3ccc(Cl)cc3)o2)s1`, the values for the inhibition in the assay on Saccharomyces cerevisiae [1] and in the assay on Escherichia coli [4] were 48.8% and 77.8%, respectively. Besides, the IC50 in [3] was 0.695 µM.
Turning to `Cc1nnc(SC(=O)c2ccc(-c3ccc(F)cc3)o2)s1`, the values for the inhibition in the assay on Saccharomyces cerevisiae [1] and in the assay on Escherichia coli [4] were 58.7% and 78.8%, respectively. For the same compound, the figures for the IC50 in assay [2] and in assay [3] were 1.85 µM and 0.796 µM, respectively.
On to `Clc1ccc2c(c1)C(N1CCNCC1)=Nc1ccccc1O2` [AMOXAPINE], for which the inhibition constant (Ki) in assay [5] was determined as 0.05 µM. Moreover, the half-maximal inhibitory concentration (IC50) in [3] turned out to be 0.083 µM. Moreover, the inhibition with Escherichia coli [4] was determined as 99.8%.
With `Cc1nnc(SC(=O)c2ccc(-c3ccccc3)o2)s1`, the inhibition is 73% with Saccharomyces cerevisiae [1] and 95.9% in the assay with Escherichia coli [4]. In addition, the 50% inhibitory concentration (IC50) in assay [2] stood at 0.823 µM; in assay [3], 0.923 µM.
For `Cc1nnc(SC(=O)c2ccc(-c3ccc(F)cc3F)o2)s1`, the figures for the inhibition in the assay with Saccharomyces cerevisiae [1] and in the assay on Escherichia coli [4] were 65.8% and 86.7%, respectively. In addition, the IC50 was 1.94 µM in assay [2] and 0.357 µM in assay [3].
Take `O=C(Sc1nncs1)c1ccc(-c2ccccc2F)o1`: the results for the inhibition in the assay on Saccharomyces cerevisiae [1] and in the assay on Escherichia coli [4] were 82.5% and 87.8%, respectively. Also, the IC50 in [2] came to 1.67 µM; in assay [3] it was 1.14 µM.
On to `O=C(Sc1nncs1)c1ccc(-c2cccc([N+](=O)[O-])c2)o1`, for which the inhibition with Saccharomyces cerevisiae [1] came to 79.6%; in the assay on Escherichia coli [4], 74.6%. For the same compound, the IC50 in [2] was determined as 1.57 µM; in assay [3], 0.212 µM.
For `O=C(Sc1nncs1)c1ccc(-c2cccc(Cl)c2)o1`, the values for the inhibition in the assay on Saccharomyces cerevisiae [1] and in the assay with Escherichia coli [4] were 77.1% and 83.8%, respectively. In addition, the IC50 in assay [2] was 0.68 µM; in assay [3], 0.148 µM.
Turning to `O=C(Sc1nncs1)c1ccc(-c2c(F)cccc2F)o1`, the inhibition in the assay on Saccharomyces cerevisiae [1] turned out to be 81.6%; with Escherichia coli [4], 92.9%. Also, the IC50 in assay [2] came to 0.903 µM; in assay [3], 0.849 µM.
On to `Cc1nnc(SC(=O)c2ccc(-c3ccc([N+](=O)[O-])cc3)o2)s1`, for which the values for the inhibition in the assay on Saccharomyces cerevisiae [1] and in the assay with Escherichia coli [4] were 62.9% and 92.9%, respectively. Moreover, the half-inhibitory concentration (IC50) in assay [2] came out at 2.5 µM; in assay [3], 0.247 µM.

For orientation: inhibition means the relative decrease from the control value, in per cent. As usually defined, the IC50 is the concentration that gives 50% inhibition. The Ki is a dissociation constant, usually derived from enzyme kinetics or from competition with a known ligand.
